Test results: US20220289691A1, “5-AMINO-SUBSTITUTED PYRAZOLES AND TRIAZOLES AS PEST CONTROL AGENTS” (Bayer Aktiengesellschaft, priority 2019, published 2022)

How the values were obtained:
Format in all cases: in vivo
Boophilus microplus = Boophilus microplus injection test; conditions: 20 μg/animal, injection into engorged adult female cattle ticks, after 7 days
Protocol: Boophilus microplus—Injection Test
(§1) Solvent: Dimethyl Sulfoxide
To produce a suitable active compound formulation, 10 mg of active compound are mixed with 0.5 ml of solvent and the concentrate is diluted to the desired concentration with solvent.
1 μl of the active compound solution is injected into the abdomen of 5 engorged adult female cattle ticks (Boophilus microplus). The animals are transferred into dishes and kept in a climate-controlled room.
Efficacy is assessed after 7 days by laying of fertile eggs. Eggs which are not visibly fertile are stored in a climate-controlled cabinet until the larvae hatch after about 42 days. An efficacy of 100% means that none of the ticks has laid any fertile eggs; 0% means that all the eggs are fertile.

Ctenocephalides felis [1] = experiment: Ctenocephalides felis oral test; conditions: 48 h, 100 ppm in citrated cattle blood, adult cat fleas, after 2 days, read-out: efficacy (kill)
Protocol: Ctenocephalides felis—Oral Test
as §1
To produce a suitable active compound formulation, 10 mg of active compound are mixed with 0.5 ml of dimethyl sulfoxide. Dilution with citrated cattle blood gives the desired concentration.
About 20 unfed adult cat fleas (Ctenocephalides felis) are placed into a chamber which is closed at the top and bottom with gauze. A metal cylinder whose bottom end is closed with parafilm is placed onto the chamber. The cylinder contains the blood/active compound formulation, which can be imbibed by the fleas through the parafilm membrane.
After 2 days, the kill in % is determined. 100% means that all of the fleas have been killed; 0% means that none of the fleas have been killed.

Phaedon cochleariae = Phaedon cochleariae spray test; conditions: foliar, 168 h, Chinese cabbage leaf discs, after 7 days, read-out: efficacy (beetle larvae killed)
Protocol: Phaedon cochleariae—Spray Test Solvent: 78.0 parts by weight of acetone • • 1.5 parts by weight of dimethylformamide Emulsifier: alkylaryl polyglycol ether
To produce a suitable active compound formulation, 1 part by weight of active compound is dissolved using the stated parts by weight of solvent and made up with water containing an emulsifier concentration of 1000 ppm until the desired concentration is attained. To produce further test concentrations, the formulation is diluted with emulsifier-containing water.
Discs of Chinese cabbage leaves (Brassica pekinensis) are sprayed with an active compound formulation of the desired concentration and, after drying, populated with larvae of the mustard beetle (Phaedon cochleariae).
After 7 days, the efficacy in % is determined. 100% means that all the beetle larvae have been killed; 0% means that no beetle larvae have been killed.

Spodoptera frugiperda = Spodoptera frugiperda spray test; conditions: foliar, 168 h, maize leaf discs, after 7 days, read-out: efficacy (caterpillars killed)
How it was run: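 Compound was dissolved in acetone/dimethylformamide and diluted with water containing 1000 ppm alkylaryl polyglycol ether emulsifier to test concentrations. Maize leaf discs were sprayed, dried and infested with fall armyworm caterpillars. Efficacy (% caterpillars killed) was scored after 7 days.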

Ctenocephalides felis [2] = experiment: Ctenocephalides felis in vitro contact test with adult cat fleas; conditions: 5 μg/cm^2 (=500 g of ai/ha), after 48 h, read-out: efficacy (fleas dead or moribund)
Protocol: Ctenocephalides felis—In Vitro Contact Tests with Adult Cat Fleas
For the coating of the test tubes, 9 mg of active compound are first dissolved in 1 ml of acetone p.a. and then diluted to the desired concentration with acetone p.a. 250 μl of the solution are distributed homogeneously on the inner walls and the base of a 25 ml glass tube by turning and rocking on an orbital shaker (rocking rotation at 30 rpm for 2 h). With 900 ppm of active compound solution and internal surface area 44.7 cm^2, given homogeneous distribution, an area-based dose of 5 μg/cm^2 is achieved.
After the solvent has evaporated off, the tubes are populated with 5-10 adult cat fleas (Ctenocephalides felis), sealed with a perforated plastic lid and incubated in a horizontal position at room temperature and ambient humidity. After 48 h, efficacy is determined. To this end, the tubes are stood upright and the fleas are knocked to the base of the tube. Fleas which remain motionless at the base or move in an uncoordinated manner are considered to be dead or moribund.
100% efficacy means that all the fleas were dead or moribund. 0% efficacy means that no fleas were harmed.

Diabrotica balteata = Diabrotica balteata spray test; conditions: 168 h, beetle larvae on wheat, after 7 days, read-out: efficacy (wheat plant growth); for pest or weed control at 125 g/ha: 125 g/ha (=40 μg/cavity); for pest or weed control at 500 g/ha: 500 g/ha (=160 μg/cavity); for pest or weed control at 100 g/ha: 100 g/ha (=32 μg/cavity)
How it was run: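 Germinated wheat seedlings in agar multiwell plates were sprayed with compound in acetone/DMF with emulsifier-containing water, then infested with 10-20 Diabrotica balteata larvae. After 7 days, efficacy (%) scored by plant growth: 100% equals untreated, uninfested control, 0% no plants grown.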

Musca domestica = Musca domestica test; conditions: 100 ppm, adult houseflies, after 2 days
Protocol: as §1
To produce a suitable active compound formulation, 10 mg of active compound are mixed with 0.5 ml of dimethyl sulfoxide, and the concentrate is diluted with water to the desired concentration.
Vessels containing a sponge treated with sugar solution and the desired concentration of active compound formulation are populated with 10 adult houseflies (Musca domestica).
After 2 days, the kill in % is determined. 100% means that all of the flies have been killed; 0% means that none of the flies have been killed.

Meloidogyne incognita = Meloidogyne incognita test; conditions: 336 h, lettuce, after 14 days, read-out: nematicidal efficacy (formation of galls)
Protocol: Meloidogyne incognita Test Solvent: 125.0 parts by weight of acetone
To produce a suitable active compound formulation, 1 part by weight of active compound is mixed with the stated amount of solvent and the concentrate is diluted to the desired concentration with water.
Vessels are filled with sand, active compound solution, an egg/larvae suspension of the southern root-knot nematode (Meloidogyne incognita) and lettuce seeds. The lettuce seeds germinate and the plants develop. The galls develop on the roots.
After 14 days, the nematicidal efficacy in % is determined by the formation of galls. 100% means that no galls were found; 0% means that the number of galls on the treated plants corresponds to the untreated control.

Row | SMILES | pest or weed control at 100 ppm (Ctenocephalides felis [1]) [%] | pest or weed control at 100 g/ha (Phaedon cochleariae) [%] | pest or weed control at 100 g/ha (Spodoptera frugiperda) [%] | pest or weed control at 5 µg/cm2 (Ctenocephalides felis [2]) [%] | pest or weed control at 100 g/ha (Diabrotica balteata) [%] | pest or weed control at 20 ppm (Meloidogyne incognita) [%] | other results
1 | CCC(=O)Nc1nc(-c2ccc(NC(=O)O[C@@H]3O[C@@H](C)[C@H](OC)[C@@H](OC)[C@H]3OC)cc2)nn1-c1ccc(OC(F)(F)C(F)(F)F)cc1 [Compound I-003] | 100 | 100 | 100 |  |  |  | efficacy (laying of fertile eggs) (Boophilus microplus): 100%; pest or weed control at 500 g/ha (Phaedon cochleariae): 100%; pest or weed control at 500 g/ha (Spodoptera frugiperda): 100%
2 | CCO[C@@H]1[C@@H](OC)[C@H](C)O[C@@H](OC(=O)Nc2ccc(-c3nc(NC(=O)CC)n(-c4ccc(OC(F)(F)F)cc4)n3)cc2)[C@@H]1OC [Compound I-007] | 90 | 100 |  |  |  |  | efficacy (laying of fertile eggs) (Boophilus microplus): 100%; pest or weed control at 500 g/ha (Phaedon cochleariae): 100%; pest or weed control at 500 g/ha (Spodoptera frugiperda): 100%
3 | CC(=O)Nc1nc(-c2ccc(C=NN=C3SCC(=O)N3c3ccccc3C(C)C)cc2)nn1-c1ccc(OC(F)(F)F)cc1 [Compound I-032] |  |  | 100 | 80 |  |  | pest or weed control at 125 g/ha (Diabrotica balteata): 100%; pest or weed control at 500 g/ha (Diabrotica balteata): 100%
4 | CCO[C@@H]1[C@@H](OC)[C@H](C)O[C@@H](OC(=O)Nc2ccc(-c3nc(NC(=O)C4CC4)n(-c4ccc(OC(F)(F)C(F)(F)F)cc4)n3)cc2)[C@@H]1OC [Compound I-002] | 100 | 83 | 100 |  |  |  | efficacy (kill) (Musca domestica): 90%; pest or weed control at 500 g/ha (Phaedon cochleariae): 100%; pest or weed control at 500 g/ha (Spodoptera frugiperda): 100%
5 | CCO[C@@H]1[C@@H](OC)[C@H](C)O[C@@H](OC(=O)Nc2ccc(-c3nc(NC(=O)CC)n(-c4ccc(OC(F)(F)C(F)(F)F)cc4)n3)cc2)[C@@H]1OC [Compound I-005] | 100 | 100 | 100 |  |  |  | efficacy (laying of fertile eggs) (Boophilus microplus): 90%; efficacy (kill) (Musca domestica): 80%; pest or weed control at 500 g/ha (Phaedon cochleariae): 100%; pest or weed control at 500 g/ha (Spodoptera frugiperda): 100%
6 | CO[C@@H]1[C@@H](OC)[C@H](C)O[C@@H](OC(=O)Nc2ccc(-c3nc(NC(C)=O)n(-c4ccc(OC(F)(F)C(F)(F)F)cc4)n3)cc2)[C@@H]1OC [Compound I-008] | 100 | 100 | 100 |  |  |  | efficacy (kill) (Musca domestica): 80%; pest or weed control at 500 g/ha (Phaedon cochleariae): 100%; pest or weed control at 500 g/ha (Spodoptera frugiperda): 100%
7 | CNc1nc(-c2ccc(C=NN=C3SCC(=O)N3c3cc(OC)ccc3C(C)C)cc2)nn1-c1ccc(OC(F)(F)F)cc1 [Compound I-090] |  |  | 100 | 100 | 100 |  | 
8 | CNc1nc(-c2ccc(C=NNC(=S)Nc3ccccc3C(C)C)c(F)c2)nn1-c1ccc(OC(F)(F)F)cc1 [Compound I-104] |  |  | 100 |  | 100 | 90 | 
9 | CNc1nc(-c2ccc(C=NN=C3SCCCN3c3ccccc3C(C)C)cc2)nn1-c1ccc(OC(F)(F)F)cc1 [Compound I-117] |  |  | 100 | 100 | 100 |  | 
10 | CNc1nc(-c2ccc(NC(=O)N=C3SCC(=O)N3c3cc(C)ccc3C(C)C)cc2)nn1-c1ccc(OC(F)(F)C(F)(F)F)cc1 [Compound I-079] |  |  | 100 | 100 | 100 |  | 
11 | CNc1nc(-c2ccc(C=NN=c3scc(C)n3-c3ccccc3C(C)C)cc2)nn1-c1ccc(OC(F)(F)F)cc1 [Compound I-097, 3-[4-({[3-(2-isopropylphenyl)-4-methyl-1,3-thiazol-2(3H)-ylidene]hydrazono}methyl)phenyl]-N-methyl-1-[4-(trifluoromethoxy)phenyl]-1H-1,2,4-triazol-5-amine] |  |  | 83 | 100 | 100 |  | 
12 | CNc1nc(-c2ccc(C=NNC(=S)Nc3ccccc3C(C)C)cc2F)nn1-c1ccc(OC(F)(F)F)cc1 [Compound I-109] |  |  | 100 |  | 100 | 90 | 
13 | CCN(CC)c1nc(-c2ccc(C=NNC(=S)Nc3ccccc3C(C)C)cc2)nn1-c1ccc(OC(F)(F)F)cc1 [Compound I-020] |  |  | 100 |  |  | 100 | pest or weed control at 125 g/ha (Diabrotica balteata): 80%; pest or weed control at 500 g/ha (Diabrotica balteata): 100%
14 | CC(=O)Nc1nc(-c2ccc(C(C)=NNC(=S)Nc3ccccc3C(C)C)cc2)nn1-c1ccc(OC(F)(F)F)cc1 [Compound I-017] | 95 | 100 | 100 |  |  | 90 | 
15 | CC(C)c1ccccc1NC(=S)NN=Cc1ccc(-c2nc(NC3CC3)n(-c3ccc(OC(F)(F)F)cc3)n2)cc1 [Compound I-051] |  |  | 100 |  | 100 | 90 | pest or weed control at 500 g/ha (Diabrotica balteata): 100%
16 | CC(=O)Nc1nc(-c2ccc(C=NNC(=S)Nc3ccccc3C(C)C)cc2)nn1-c1ccc(OC(F)(F)F)cc1 [Compound I-009] | 100 | 100 | 100 | 100 |  |  | 
17 | CNc1nc(-c2cc(F)c(C=NNC(=S)Nc3ccccc3C(C)C)c(F)c2)nn1-c1ccc(OC(F)(F)F)cc1 [Compound I-107] |  |  | 100 |  | 100 | 90 | 
18 | CNc1nc(-c2ccc(NC(=O)N=C3SCC(=O)N3c3cc(OC)ccc3C(C)C)cc2)nn1-c1ccc(OC(F)(F)C(F)(F)F)cc1 [Compound I-083] |  |  | 100 | 90 | 100 |  | 
19 | CC(C)c1ccccc1N1C(=O)CSC1=NN=Cc1ccc(-c2nc(N)n(-c3ccc(OC(F)(F)F)cc3)n2)cc1 [Compound I-056] |  |  | 100 |  | 100 | 90 | pest or weed control at 500 g/ha (Diabrotica balteata): 100%
